In patent US10047051B2, “Substituted pyridines and method of use” (AbbVie S.á{acute over (.)}r.l., priority 2015, dated 2018):

Tests used:
Format in all cases: cell-based
CFTR ΔF508 mutant = target: T1, CFTR ΔF508 mutant (Homo sapiens, UniProt P13569, DEL508-508); test: YFP-halide influx assay for the CFTR-ΔF508 mutation (CFBE41o- cells); conditions: forskolin 10.67 μM; for EC50: from (1−F/F0) vs concentration plot
T1 construct: expressed in transfected cells; host or cells: CFBE41o- cells, adenoviral transduction
T1 sequence (P13569 with tags, fused parts or gaps DEL508-508): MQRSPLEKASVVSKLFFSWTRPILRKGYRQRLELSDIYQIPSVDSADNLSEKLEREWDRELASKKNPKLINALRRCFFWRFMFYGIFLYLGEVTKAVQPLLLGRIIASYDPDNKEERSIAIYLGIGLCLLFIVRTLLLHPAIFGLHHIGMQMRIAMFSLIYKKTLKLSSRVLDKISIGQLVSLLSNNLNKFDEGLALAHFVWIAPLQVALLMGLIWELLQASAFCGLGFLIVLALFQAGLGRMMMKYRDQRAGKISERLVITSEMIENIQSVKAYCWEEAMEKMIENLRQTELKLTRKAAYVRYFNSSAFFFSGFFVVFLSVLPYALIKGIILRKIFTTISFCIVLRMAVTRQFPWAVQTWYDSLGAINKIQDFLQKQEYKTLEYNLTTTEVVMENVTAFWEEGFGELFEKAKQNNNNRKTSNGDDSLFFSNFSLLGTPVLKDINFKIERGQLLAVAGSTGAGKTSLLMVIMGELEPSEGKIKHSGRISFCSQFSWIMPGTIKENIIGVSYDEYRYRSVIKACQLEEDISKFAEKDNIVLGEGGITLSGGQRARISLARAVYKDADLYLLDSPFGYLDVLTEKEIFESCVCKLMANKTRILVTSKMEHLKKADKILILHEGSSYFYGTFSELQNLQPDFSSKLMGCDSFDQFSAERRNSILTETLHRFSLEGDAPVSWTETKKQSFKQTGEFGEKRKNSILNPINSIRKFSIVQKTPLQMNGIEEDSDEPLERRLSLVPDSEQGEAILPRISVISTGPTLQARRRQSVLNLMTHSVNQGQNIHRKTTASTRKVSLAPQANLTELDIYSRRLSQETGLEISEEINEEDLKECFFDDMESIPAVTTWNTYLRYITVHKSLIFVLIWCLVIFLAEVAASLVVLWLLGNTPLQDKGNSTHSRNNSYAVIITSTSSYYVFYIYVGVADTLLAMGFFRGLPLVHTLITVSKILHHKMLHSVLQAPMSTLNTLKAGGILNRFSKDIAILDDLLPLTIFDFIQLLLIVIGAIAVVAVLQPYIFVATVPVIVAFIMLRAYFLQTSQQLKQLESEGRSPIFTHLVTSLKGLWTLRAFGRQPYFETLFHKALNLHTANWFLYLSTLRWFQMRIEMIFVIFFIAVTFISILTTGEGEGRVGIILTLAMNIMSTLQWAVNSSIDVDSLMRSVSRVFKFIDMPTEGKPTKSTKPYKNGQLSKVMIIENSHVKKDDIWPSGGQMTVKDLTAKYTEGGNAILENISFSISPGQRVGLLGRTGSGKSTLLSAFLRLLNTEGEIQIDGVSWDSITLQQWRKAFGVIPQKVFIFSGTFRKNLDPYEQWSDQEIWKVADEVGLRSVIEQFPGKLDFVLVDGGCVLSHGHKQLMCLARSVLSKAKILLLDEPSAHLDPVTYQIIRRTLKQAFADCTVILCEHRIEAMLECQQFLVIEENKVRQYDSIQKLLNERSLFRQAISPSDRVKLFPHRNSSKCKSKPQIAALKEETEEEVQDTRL
Procedure, shortened: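 EC50 derived from plotting 1−F/F0 (fluorescence 36 s after iodide injection over pre-injection value) against compound concentration. Cells: CFBE41o- transduced with ΔF508-CFTR and YFP quench reporter, corrected 24 h at 27° C or by a CFTR modulator at 37° C.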

CFTR-G1349D = target: T2, CFTR-G1349D (Homo sapiens, UniProt P13569, G1349D); test: YFP-halide influx assay for the CFTR-G1349D
T2 construct: expressed in transfected cells
T2 sequence (P13569 whole entry G1349D): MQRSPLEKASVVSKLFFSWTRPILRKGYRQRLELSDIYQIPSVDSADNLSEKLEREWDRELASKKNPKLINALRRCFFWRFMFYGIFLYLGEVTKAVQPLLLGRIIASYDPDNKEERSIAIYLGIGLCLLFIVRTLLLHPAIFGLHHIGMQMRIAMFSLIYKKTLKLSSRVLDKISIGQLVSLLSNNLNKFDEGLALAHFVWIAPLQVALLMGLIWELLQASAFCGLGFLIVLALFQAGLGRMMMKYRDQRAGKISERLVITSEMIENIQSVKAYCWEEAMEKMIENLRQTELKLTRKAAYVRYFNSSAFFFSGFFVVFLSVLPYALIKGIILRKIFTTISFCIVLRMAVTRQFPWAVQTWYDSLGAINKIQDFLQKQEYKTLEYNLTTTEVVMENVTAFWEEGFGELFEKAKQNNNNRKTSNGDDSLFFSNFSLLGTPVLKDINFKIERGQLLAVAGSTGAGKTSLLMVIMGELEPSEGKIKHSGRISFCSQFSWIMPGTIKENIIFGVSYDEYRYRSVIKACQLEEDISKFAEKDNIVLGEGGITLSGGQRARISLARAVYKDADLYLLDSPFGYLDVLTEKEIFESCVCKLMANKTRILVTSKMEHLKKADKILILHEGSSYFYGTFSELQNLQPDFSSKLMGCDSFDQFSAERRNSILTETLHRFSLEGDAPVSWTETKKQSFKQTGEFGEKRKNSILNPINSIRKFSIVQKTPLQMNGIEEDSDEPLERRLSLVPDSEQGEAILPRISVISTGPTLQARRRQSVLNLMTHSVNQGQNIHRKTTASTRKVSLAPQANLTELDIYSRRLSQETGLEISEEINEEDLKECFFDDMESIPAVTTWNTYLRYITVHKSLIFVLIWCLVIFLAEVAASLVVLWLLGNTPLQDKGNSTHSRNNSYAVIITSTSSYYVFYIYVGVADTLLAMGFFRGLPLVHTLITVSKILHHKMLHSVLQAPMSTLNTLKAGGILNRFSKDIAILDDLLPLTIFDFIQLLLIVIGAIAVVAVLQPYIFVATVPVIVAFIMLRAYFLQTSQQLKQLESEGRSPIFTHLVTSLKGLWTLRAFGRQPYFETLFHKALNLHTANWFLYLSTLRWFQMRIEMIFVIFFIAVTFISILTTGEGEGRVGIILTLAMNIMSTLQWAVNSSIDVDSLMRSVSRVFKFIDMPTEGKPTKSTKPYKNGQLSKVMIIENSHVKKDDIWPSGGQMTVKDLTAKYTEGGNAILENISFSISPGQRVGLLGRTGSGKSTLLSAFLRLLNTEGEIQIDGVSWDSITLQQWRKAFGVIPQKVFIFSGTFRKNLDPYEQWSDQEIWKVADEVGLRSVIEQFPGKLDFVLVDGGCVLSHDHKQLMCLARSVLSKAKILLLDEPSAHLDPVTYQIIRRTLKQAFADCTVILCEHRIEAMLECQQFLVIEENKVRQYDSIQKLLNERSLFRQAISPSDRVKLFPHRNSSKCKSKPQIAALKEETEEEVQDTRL
Procedure, shortened: (§1)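 HEK293 cells reverse-transfected with a CFTR mutant and YFP H148Q/I152L/F47L halide sensor, expressed 24 h at 37° C. Fluorescence quenching followed for 7 s after I⁻ injection; activity expressed as 1−F/F0, with EC50 fitted from 1−F/F0 versus compound concentration.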

CFTR-R117H = target: T3, CFTR-R117H (Homo sapiens, UniProt P13569, R117H); test: YFP-halide influx assay for the CFTR-R117H
T3 construct: expressed in transfected cells
T3 sequence (P13569 whole entry R117H): as the sequence (P13569 whole entry G1349D) above, with R117H, D1349G counted along it
Procedure, shortened: as §1

G551D CFTR = G551D CFTR (Homo sapiens, UniProt P13569, G551D); test: TECC assay, FRT-CFTR G551D protocol; conditions: FRT cells stably transfected with G551D CFTR, high expression cells, increase in Isc after forskolin
G551D CFTR, sequence (P13569 whole entry G551D): as the sequence (P13569 whole entry G1349D) above, with G551D, D1349G counted along it
Experimental: For G551D recordings, Fischer Rat Thyroid (FRT) cells stably transfected with G551D CFTR (a low CFTR-G551D expressing cell line and a high expressing CFTR-G551D cell line from Rosalind Franklin University of Medicine and Science, North Chicago, Ill.) are plated on Transwell® supports (Costar 6.5 mm diameter, 0.4 μm pore size). The cells are grown for 8-10 days under liquid-liquid interface conditions prior to electrophysiological readings. For electrophysiological recording, the FRT-G551D cells are mounted in the TECC heating plate for electrophysiological measurement and kept at 37° C. The epithelia are bathed in HEPES buffered culturing medium without FBS on both the basolateral and apical sides. Apical amiloride is used to inhibit the endogenous ENaC currents while forkolin is applied on both apical and basolateral side to stimulate CFTR. After forskolin triggering, compounds are added on both sides to test their potential for increasing CFTR gating. Measurements are done during a 10 minute timeframe with recordings every 2 minutes. The increase in Isc is used as a measure for the increased CFTR activity, EC50 values can be generated by measuring impact of different concentrations of compound on Isc on the cells, for this purpose each transwell is treated with a different compound concentration. Inh-172, an inhibitor specific for CFTR, is used to test the specificity of the tested compounds.

% Activation (CFTR ΔF508 mutant) [%]	EC50 (CFTR ΔF508 mutant) [nM]	% Activation (CFTR-G1349D) [%]	EC50 (CFTR-G1349D) [nM]	% Activation (CFTR-R117H) [%]	EC50 (CFTR-R117H) [nM]	EC50 (G551D CFTR) [nM]	Structure (SMILES)
97.9	31.4	69.6	265	98.5	598	645	CC(C)(O)CNC(=O)c1ncc(S(=O)(=O)c2ccc(OC(F)(F)F)cc2)cc1N [Compound 1, 3-amino-N-(2-hydroxy-2-methylpropyl)-5-{[4-(trifluoromethoxy)phenyl]sulfonyl}pyridine-2-carboxamide]
104.5	4.3	69.4	567	76.0	231		CC(O)(CNC(=O)c1ncc(S(=O)(=O)c2ccc(OC(F)(F)F)cc2)cc1N)C(F)(F)F (centres unmarked) [Compound 2, 3-amino-N-(3,3,3-trifluoro-2-hydroxy-2-methylpropyl)-5-{[4-(trifluoromethoxy)phenyl]sulfonyl}pyridine-2-carboxamide]
114.0	3.4	87.4	158	95.7	63.9	443	Nc1cc(S(=O)(=O)c2ccc(OC(F)(F)F)cc2)cnc1C(=O)NCC(O)C(F)(F)F (centres unmarked) [Compound 6, 3-amino-N-(3,3,3-trifluoro-2-hydroxypropyl)-5-{[4-(trifluoromethoxy)phenyl]sulfonyl}pyridine-2-carboxamide]
108.1	23.7	66.7	816	89.7	943	11700	Nc1cc(S(=O)(=O)c2ccc(OC(F)(F)F)cc2)cnc1C(=O)NCCO [Compound 14, 3-amino-N-(2-hydroxyethyl)-5-{[4-(trifluoromethoxy)phenyl]sulfonyl}pyridine-2-carboxamide]
109.0	14.9	88.9	498	93.3	289	1630	C[C@H](O)CNC(=O)c1ncc(S(=O)(=O)c2ccc(OC(F)(F)F)cc2)cc1N [Compound 21, 3-amino-N-[(2S)-2-hydroxypropyl]-5-{[4-(trifluoromethoxy)phenyl]sulfonyl}pyridine-2-carboxamide]
108.3	8.1	82.6	412	91.3	318	1200	Nc1cc(S(=O)(=O)c2ccc(F)cc2)cnc1C(=O)NC[C@H](O)C(F)(F)F [Compound 25, 3-amino-5-[(4-fluorophenyl)sulfonyl]-N-[(2S)-3,3,3-trifluoro-2-hydroxypropyl]pyridine-2-carboxamide]
105.3	2.2					1230	Nc1cc(S(=O)(=O)c2ccc(OC(F)(F)F)cc2)cnc1C(=O)NC[C@H](O)C(F)(F)F [Compound 26, 3-amino-N-[(2S)-3,3,3-trifluoro-2-hydroxypropyl]-5-{[4-(trifluoromethoxy)phenyl]sulfonyl}pyridine-2-carboxamide]
106.2	18.6	86.8	511	100.0	866	824	Nc1cc(S(=O)(=O)c2ccc(OC(F)(F)F)cc2)cnc1C(=O)NCC(O)COCC1CC1 (centres unmarked) [Compound 31, 3-amino-N-[3-(cyclopropylmethoxy)-2-hydroxypropyl]-5-{[4-(trifluoromethoxy)phenyl]sulfonyl}pyridine-2-carboxamide]
96.1	14.5	88.0	536	91.3	460		Nc1cc(S(=O)(=O)c2ccc(OC(F)(F)F)cc2)cnc1C(=O)N1CC(O)C1 [Compound 32, (3-amino-5-{[4-(trifluoromethoxy)phenyl]sulfonyl}pyridin-2-yl)(3-hydroxyazetidin-1-yl)methanone]
111.0	8.5	82.7	312	100.8	148	735	Nc1cc(S(=O)(=O)c2ccc(F)cc2)cnc1C(=O)NC[C@@H](O)C(F)(F)F [Compound 36, 3-amino-5-[(4-fluorophenyl)sulfonyl]-N-[(2R)-3,3,3-trifluoro-2-hydroxypropyl]pyridine-2-carboxamide]
106.4	2.3						Nc1cc(S(=O)(=O)c2ccc(OC(F)(F)F)cc2)cnc1C(=O)NC[C@@H](O)C(F)(F)F [Compound 37, 3-amino-N-[(2R)-3,3,3-trifluoro-2-hydroxypropyl]-5-{[4-(trifluoromethoxy)phenyl]sulfonyl}pyridine-2-carboxamide]
105.5	22.9	84.31	440	86.71	291		Nc1cc(S(=O)(=O)c2ccc(OC(F)(F)F)cc2)cnc1C(=O)N1CC(F)(F)C1 [Compound 40, (3-amino-5-{[4-(trifluoromethoxy)phenyl]sulfonyl}pyridin-2-yl)(3,3-difluoroazetidin-1-yl)methanone]
111.6	16.9	89.6	378	98.8	540	622	COC[C@H](O)CNC(=O)c1ncc(S(=O)(=O)c2ccc(C(F)(F)F)cc2)cc1N [Compound 70, 3-amino-N-[(2R)-2-hydroxy-3-methoxypropyl]-5-{[4-(trifluoromethyl)phenyl]sulfonyl}pyridine-2-carboxamide]
104.0	0.5	96.01	9.54	113.2	21.8		Nc1cc(S(=O)(=O)c2ccccc2OC(F)(F)F)cnc1C(=O)NC[C@@H](O)C(F)(F)F [Compound 81, 3-amino-N-[(2R)-3,3,3-trifluoro-2-hydroxypropyl]-5-{[2-(trifluoromethoxy)phenyl]sulfonyl}pyridine-2-carboxamide]
96.6	12.9	75.5	533	97.3	505	1190	C[C@H](O)CNC(=O)c1ncc(S(=O)(=O)c2ccc(C(F)(F)F)cc2)cc1N [Compound 100, 3-amino-N-[(2S)-2-hydroxypropyl]-5-{[4-(trifluoromethyl)phenyl]sulfonyl}pyridine-2-carboxamide]
